Laboratory results reported in PubChem BioAssay AID1508612.

Experiment: passive permeability, PAMPA, ADME assay (AID 1508612)
Details: pH 7.4, 30.0 min, 50.0 µM

| Structure (SMILES) | Papp [×10⁻⁶ cm/s] |
| --- | --- |
| NC(=O)C1CCN(c2ncc(-c3cccc(N4CCCC4)c3)s2)CC1 | 95.6 |
| CCOC(=O)c1ccc(NC2CCCCC2)c(N)c1 | > 1000 |
| CC(=O)Nc1nc(C)c(-c2ccc(Cl)c(S(=O)(=O)NCCO)c2)s1 | 12.1 |
| CCCN1C(CC(C)C)=NS(=O)(=O)c2cc(NC(=O)c3cccs3)ccc21 | 762 |
| CC(C)Oc1ccc(-c2ccc(=O)n(CC(=O)NCCc3ccccc3)n2)cc1 | > 1000 |
| CCCc1cc(C)[nH]c(=O)c1CNC(=O)c1cc(-c2ccnc(N3CCN(C)CC3)c2)cc2c1cnn2C(C)C | 782 |
| Cc1ccc(S(=O)(=O)Nc2cnccc2C(=O)Nc2nc(-c3ccco3)cs2)cc1 | 297 |
| Cc1nc(NCc2ccco2)nc2c1C(=O)CC(C)C2 (stereo not given) | > 1000 |
| COc1ccc(NC2CCCN(C(=O)CCc3ccccc3F)C2)cc1 (stereo not given) | 923 |
| Fc1cc(Nc2nc(-c3ccncc3)nc3ccccc23)ccc1-c1ccc2[nH]ncc2c1 | 42 |
| CSc1nc(N)cc(Oc2ccc(-c3nc(Nc4cccc(C(F)(F)F)c4)n[nH]3)cc2)n1 | 633 |
| CN(Cc1cnc2nc(N)nc(N)c2n1)c1ccc(C(=O)N[C@@H](CCC(=O)O)C(=O)O)cc1 | 5.39 |
| COC(=O)c1ccc2nc(NC3=NC(c4[nH]ncc4Cl)C4=C(CCCC4=O)N3)oc2c1 (stereo not given) | 578 |
| Cc1ccc(S(=O)(=O)Nc2cnccc2C(=O)Nc2nc(-c3cccc(Cl)c3)cs2)cc1 | 38 |
| CC[C@H](NC(=O)[C@H](C)NC)C(=O)N1C[C@@H](O)C[C@H]1Cc1c(-c2[nH]c3cc(F)ccc3c2C[C@H]2C[C@H](O)CN2C(=O)[C@H](CC)NC(=O)[C@H](C)NC)[nH]c2cc(F)ccc12 | < 1 |
| CC1=C[C@@H](CN2C(=O)C(C)=C(C)C2=O)[C@H](C(C)C)C[C@H]1Cc1nc2c(C)cccc2[nH]1 | 585 |
| Cc1noc(C)c1C(=O)N1CCC2(CCCN(Cc3ccccc3)C2)CC1 | 449 |
| O=C(C=Cc1cccnc1)NCCCCC1CCN(C(=O)c2ccccc2)CC1 | 130 |
| Oc1ccc(-c2nc(C3CC3)nc3c2CCN(CC2CCCCC2)CC3)cc1 | > 1000 |
| O=C(Nc1nc(-c2ccccc2)cs1)c1ccncc1NS(=O)(=O)c1ccc(Cl)cc1 | 294 |
| COc1ccc(Nc2cc3c(nc2OC)nc(CCc2ccccc2)n3C)cn1 | > 1000 |
| COc1ccc(NC(=O)c2[nH]c(C)cc2C)cc1S(=O)(=O)Nc1ccc(Br)cc1 | > 1000 |
| Cc1ccc(-n2nc(C)c3c(-c4ccc(O)c(O)c4)c(C#N)c(N)nc32)cc1C | 187 |
| Fc1cc(Nc2nc(-c3ccncc3)nc3ccccc23)ccc1-c1ccc(F)c(F)c1F | 57.5 |
| CNC(=O)c1ccc(C)c(-n2c(C)cc(OCc3ccc(F)cc3F)c(Br)c2=O)c1 | 695 |

| Structure (SMILES) | Papp [×10⁻⁶ cm/s] |
| --- | --- |
| Cc1cc(C)nc(NC(=S)N2CCN(c3cccc(C(F)(F)F)c3)CC2)c1 | 593 |
| COc1cc2c(c(OC)c1OC)-c1ccc(OC)c(=O)cc1[C@@H](NC(C)=O)CC2 | 1.93 |
| N#Cc1nc(-c2cccc3ccccc23)oc1NC1COC1 | > 1000 |
| O=C(NCc1cccc(C(F)(F)F)c1)c1ccc(CN2CCCCC2)cc1 | > 1000 |
| Clc1ccc2ncc(-c3cccc(NC4CCNCC4)n3)n2c1 | 807 |
| Cc1ccc(S(=O)(=O)Nc2cnccc2C(=O)Nc2nc(-c3nc4ccccc4s3)cs2)cc1 | 740 |
| Cc1ccccc1C(=O)N1CCc2cc(-c3nc(NC(=O)Cc4ccc5c(c4)OCO5)sc3C)ccc21 | 23.9 |
| CCN(CC)CCNC(=O)C1CCN(c2nn3cc(-c4ccc(F)cc4)nc3s2)CC1 | > 1000 |
| CC(Cc1ccc(O)cc1)NCC(O)c1cc(O)cc(O)c1 (stereo not given) | 1.9 |
| CCOc1cc2c(cc1OCC)CN(C(=O)c1cc3sccc3n1Cc1ccccc1)CC2 | > 1000 |
| N#Cc1nc(-c2cccc3ccccc23)oc1Nc1ccccc1 | 821 |
| FC(F)(F)Oc1cccc(Nc2nc(-c3ccncc3)nc3ccccc23)c1 | 226 |
| CC1CCN(S(=O)(=O)c2ccc3c(ccc(=O)n3CC(=O)NCc3ccc(Cl)cc3)c2)CC1 | 799 |
| COc1nccc(-c2nc(Nc3ccc(F)c(F)c3)c3ccccc3n2)c1Cl | 30.3 |
| COc1cc(C2CC(=O)Nc3cc4c(cc32)OCCO4)cc(Br)c1OC (stereo not given) | 376 |
| OC1(c2ccc(Cl)cc2)CCN(Cc2c[nH]c3ccccc23)CC1 | > 1000 |
| CSc1ncc(Cl)c(C(=O)Nc2c(C)cccc2C)n1 | 508 |
| Cc1cccc(S(=O)(=O)Nc2cnccc2C(=O)Nc2nc(-c3ccccc3)cs2)c1 | 860 |
| COc1ccc2c(c1)/C(=C/c1cnc[nH]1)C(=O)N2 | 220 |
| CC(=O)Nc1ncc(S(=O)(=O)N2CCOCC2)s1 | 37.9 |
| CCOc1ccc(CCNC(=O)c2cc3ccccc3n2Cc2ccccn2)cc1OCC | > 1000 |
| Cc1ccc(S(=O)(=O)N[C@@H](Cc2ccccc2)C(=O)CCl)cc1 | 323 |
| NC(=O)C1CCN(c2nc(-c3cccc(Cl)c3)cs2)CC1 | > 1000 |
| COc1cc(C(=S)N2CCN(CCO)CC2)ccc1OCc1ccc(C)cc1 | > 1000 |
| CN(C)c1cccc(-c2c3c(=O)n(-c4ccccc4Cl)[nH]c3cc(=O)n2C)c1 | 13.9 |

| Structure (SMILES) | Papp [×10⁻⁶ cm/s] |
| --- | --- |
| O=C1NCc2ccc(-c3cc4c(ccn4Cc4cccnc4)c(C4=CCOCC4)n3)cc21 | 175 |
| COc1ccc(CN2CCN(C(=O)c3cc4c(s3)CCC4)CC2)cc1 | 997 |
| CCOC(=O)c1nc(Nc2ccc(N3CCC(C)CC3)cc2)c2ccccc2n1 | > 1000 |
| Cc1cnc(-c2ccccc2C2COC2)nc1NCc1ccc(-c2cccnc2)cc1 | 2.87 |
| COCCNC(=O)c1ccc(-c2ncc3cnc(-c4cccc(F)c4)cn23)cc1 | 405 |
| CNc1oc(-c2ccccc2-c2ccccc2)nc1C#N | 906 |
| COc1ccc(Nc2nc(-c3cccc(OC)c3)no2)cc1 | 34.5 |
| CCOc1ccc(CCNC(=O)c2cc3cnccc3n2Cc2cccc(C)c2)cc1OCC | 184 |
| O=[N+]([O-])c1ccc(CNc2ccc([S+](=O)([O-])Nc3nccs3)cc2)c(O)c1 | 1.2 |
| COc1cccc(CNc2ccc(S(=O)(=O)Nc3nccs3)cc2)c1 | 342 |
| CN(C)CCN1C(=O)c2cccc3cc(N)cc(c23)C1=O | 339 |
| Cn1cc(-c2nc(Nc3ccc(F)c(F)c3)c3ccccc3n2)cn1 | 315 |
| Cc1ccc(C)c(CN2C(=O)c3ccccc3S(=O)c3ccc(C(=O)N4CCN(c5ccccc5F)CC4)cc32)c1 (stereo not given) | > 1000 |
| COc1cc(C(=O)NC2CCCc3c2[nH]c2ccccc32)cc(OC)c1OC (stereo not given) | 189 |
| CCc1ccccc1Nc1ncnc2c1cnn2-c1ccc(Cl)cc1 | 253 |
| Cc1ccc(C)n1-c1cccc(C(=O)O)c1 | 34.6 |
| CN(C(=O)COC(=O)c1csc(NCc2ccccc2)n1)c1ccccc1 | > 1000 |
| COc1ccc(-c2nc3ccccc3c(=O)n2Cc2ccccc2)cc1COc1ccc(NC(C)=O)cc1 | > 1000 |
| O=C(COc1ccccc1)NCC(c1cccs1)S(=O)(=O)c1ccc(Cl)cc1 (stereo not given) | 592 |
| COCCn1ccc2c(C3=CCOCC3)nc(-c3cccc(NC(C)=O)c3)cc21 | 464 |
| CC(=O)c1c(C)[nH]c(C(=O)Nc2cccc([S+](=O)([O-])Nc3ccc(C#N)cc3)c2)c1C | 178 |
| Cc1ccc(S(=O)(=O)Nc2cc(Cl)c(Cl)cc2C(=O)Nc2nc(-c3ccccc3)cs2)cc1 | 5 |
| COc1cccc(-n2nc(C(=O)O)cc2-c2ccc(C3CCCCC3)c(Cl)c2)c1 | > 1000 |
| Cc1ccnc(NC(=O)C2CC(=O)N(c3n[nH]c4cc(Br)ccc34)C2)c1 (stereo not given) | 563 |
| NS(=O)(=O)c1ccc(Cc2c(-c3cccc(-c4ccccc4)c3)nn(-c3nc(C(=O)O)cs3)c2CC2CC2)cc1 | 3.4 |
